Data from patent US20220395472A1 (Dermavant Sciences GmbH, priority 2021, published 2022).
Like-named read-outs stand apart in the source and are kept apart here.

Legend:
[1] = system: adults with plaque psoriasis; experiment: Long-term extension study (PSOARING 3): % BSA affected; type: in vivo, human
Protocol: The % BSA affected is an estimate of the percentage of total involved skin with psoriasis. For the purpose of clinical estimation, the total palmar surface of the subject's palm and digits was assumed to be approximately equivalent to 1% BSA. The % BSA affected by psoriasis was evaluated (from 0% to 100%). Details on calculation of approximate % BSA involvement in each subject (total and individual) can be found in Appendix 2 of the protocol. Percent BSA is a static assessment made without reference to previous scores.
At Screening, Baseline, and for all efficacy assessments, lesions on the subject's scalp, palms, fingernails, toenails, and soles were not included in the calculation of % BSA affected as these areas were excluded from the efficacy analyses.

[2] = system: adults with plaque psoriasis; experiment: Long-term extension study (PSOARING 3): PASI score, PASI75, PASI90; type: in vivo, human
Text: The PASI scoring system is a widely used, standard, clinical tool for assessing the severity of psoriasis that takes into account the overall severity of erythema (redness), induration (plaque thickness), scale, and the extent of % BSA affected with psoriasis. The 3 clinical signs are each graded on a 5 point scale (0 to 4) and the % BSA affected is scored on a 7 point scale (0 to 6) for each of the 4 specified body regions (head, upper extremities, trunk, and lower extremities). Individual scores are multiplied by a weighted factor for each body region; the sum of these scores gives the overall PASI score. Higher scores indicate more severe disease. PASI is a static assessment made without reference to previous scores. Details on PASI calculation can be found in Appendix 2 of the protocol.

[3] = system: adult and adolescent subjects with AD; settings: cited from earlier work
[4] = Week 16, LOCF, Tapinarof (Pivotal) group
[5] = Week 16, LOCF, Vehicle (Pivotal) group
[6] = Week 16, OC, Tapinarof (Pivotal) group
[7] = Week 16, OC, Vehicle (Pivotal) group
[8] = Week 40, LOCF, Tapinarof (Pivotal) group
[9] = Week 40, LOCF, Vehicle (Pivotal) group
[10] = Week 40, OC, Tapinarof (Pivotal) group
[11] = Week 40, OC, Vehicle (Pivotal) group
[12] = Week 16, Observed Cases, Overall
[13] = Week 16, Observed Cases, Tapinarof (Pivotal) group
[14] = Week 16, Observed Cases, Vehicle (Pivotal) group
[15] = Week 40, Observed Cases, Tapinarof (Pivotal) group
[16] = Week 40, Observed Cases, Vehicle (Pivotal) group

SMILES: CC(C)c1c(O)cc(/C=C/c2ccccc2)cc1O [Tapinarof, 3,5-Dihydroxy-4-isopropyl-trans-stilbene]
- mean % BSA affected [1, 4]: 2.54%
- mean % BSA affected [1, 5]: 3.36%
- mean % BSA affected [1, 6]: 1.97%
- mean % BSA affected [1, 7]: 2.89%
- mean % BSA affected ([1]; Week 16 LOCF, Overall): 2.82%
- mean % BSA affected ([1]; Week 16 OC, Overall): 2.28%
- mean % BSA affected [1, 8]: 2.44%
- mean % BSA affected [1, 9]: 2.99%
- mean % BSA affected [1, 10]: 1.75%
- mean % BSA affected [1, 11]: 2.07%
- mean % BSA affected ([1]; Week 40 LOCF, Overall): 2.63%
- mean % BSA affected ([1]; Week 40 OC, Overall): 1.85%
- PASI75 Responder ([2]; Week 16, LOCF, Overall, listed as tapinarof): 21.3%
- PASI75 Non-Responder [2, 4]: 413/491 (84.1) %
- PASI75 Responder [2, 4]: 78/491 (15.9) %
- Subjects with reduction of ≥90% from Baseline in PASI (PASI90) [2, 4]: 13.0%
- mean (SD) PASI score [2, 4]: 2.74 (3.324)
- PASI75 Responder ([2]; Week 16, LOCF, Tapinarof (Pivotal) group, listed as tapinarof): 15.9%
- PASI75 Non-Responder [2, 5]: 170/250 (68.0) %
- PASI75 Responder [2, 5]: 80/250 (32.0) %
- Subjects with reduction of ≥90% from Baseline in PASI (PASI90) [2, 5]: 15.2%
- mean (SD) PASI score [2, 5]: 3.47 (3.794)
- PASI75 Responder ([2]; Week 16, LOCF, Vehicle (Pivotal) group, listed as tapinarof): 32.0%
- Subjects with reduction of ≥90% from Baseline in PASI (PASI90) [2, 6]: 13.6%
- mean (SD) PASI score [2, 6]: 2.38 (2.652)
- Subjects with reduction of ≥90% from Baseline in PASI (PASI90) [2, 7]: 15.9%
- mean (SD) PASI score [2, 7]: 2.95 (3.020)
- PASI75 Non-Responder [2, 12]: 478/619 (77.2) %
- PASI75 Responder [2, 12]: 141/619 (22.8) %
- PASI75 Responder ([2]; Week 16, Observed Cases, Overall, listed as tapinarof): 22.8%
- PASI75 Non-Responder [2, 13]: 342/412 (83.0) %
- PASI75 Responder [2, 13]: 70/412 (17.0) %
- PASI75 Responder ([2]; Week 16, Observed Cases, Tapinarof (Pivotal) group, listed as tapinarof): 17.0%
- PASI75 Non-Responder [2, 14]: 136/207 (65.7) %
- PASI75 Responder [2, 14]: 71/207 (34.3) %
- PASI75 Responder ([2]; Week 16, Observed Cases, Vehicle (Pivotal) group, listed as tapinarof): 34.3%
- PASI75 Non-Responder ([2]; Week 16 LOCF, Overall): 583/741 (78.7) %
- PASI75 Responder ([2]; Week 16 LOCF, Overall): 158/741 (21.3) %
- Subjects with reduction of ≥90% from Baseline in PASI (PASI90) ([2]; Week 16 LOCF, Overall): 13.8%
- mean (SD) PASI score ([2]; Week 16 LOCF, Overall): 2.99 (3.504)
- Subjects with reduction of ≥90% from Baseline in PASI (PASI90) ([2]; Week 16 OC, Overall): 14.4%
- mean (SD) PASI score ([2]; Week 16 OC, Overall): 2.57 (2.791)
- PASI75 Responder ([2]; Week 40, LOCF, Overall, listed as tapinarof): 25.3%
- PASI75 Non-Responder [2, 8]: 409/492 (83.1) %
- Subjects with reduction of ≥90% from Baseline in PASI (PASI90) [2, 8]: 11.2%
- mean (SD) PASI score [2, 8]: 2.80 (3.443)
- PASI75 Responder ([2]; Week 40, LOCF, Tapinarof (Pivotal) group, listed as tapinarof): 16.9%
- PASI75 Non-Responder [2, 9]: 146/251 (58.2) %
- PASI75 Responder [2, 9]: 105/251 (41.8) %
- Subjects with reduction of ≥90% from Baseline in PASI (PASI90) [2, 9]: 20.7%
- mean (SD) PASI score [2, 9]: 3.28 (3.937)
- PASI75 Responder ([2]; Week 40, LOCF, Vehicle (Pivotal) group, listed as tapinarof): 41.8%
- Subjects with reduction of ≥90% from Baseline in PASI (PASI90) [2, 10]: 13.1%
- mean (SD) PASI score [2, 10]: 2.38 (2.672)
- Subjects with reduction of ≥90% from Baseline in PASI (PASI90) [2, 11]: 27.4%
- mean (SD) PASI score [2, 11]: 2.31 (3.008)
- PASI75 Responder ([2]; Week 40, Observed Cases, Overall): 30.9%
- PASI75 Non-Responder [2, 15]: 186/236 (78.8) %
- PASI75 Responder [2, 15]: 50/236 (21.2) %
- PASI75 Responder ([2]; Week 40, Observed Cases, Tapinarof (Pivotal) group, listed as tapinarof): 21.2%
- PASI75 Non-Responder [2, 16]: 55/113 (48.7) %
- PASI75 Responder [2, 16]: 58/113 (51.3) %
- PASI75 Responder ([2]; Week 40, Observed Cases, Vehicle (Pivotal) group, listed as tapinarof): 51.3%
- PASI75 Non-Responder ([2]; Week 40 LOCF, Overall): 555/743 (74.7) %
- PASI75 Responder ([2]; Week 40 LOCF, Overall): 188/743 (25.3) %
- Subjects with reduction of ≥90% from Baseline in PASI (PASI90) ([2]; Week 40 LOCF, Overall): 14.4%
- mean (SD) PASI score ([2]; Week 40 LOCF, Overall): 2.97 (3.622)
- Subjects with reduction of ≥90% from Baseline in PASI (PASI90) ([2]; Week 40 OC, Overall): 17.8%
- mean (SD) PASI score ([2]; Week 40 OC, Overall): 2.36 (2.781)
- reported TEAEs ([3]; 1% BID arm): 70%
- proportion subjects with ≥75% improvement in EASI ([3]; 1% BID): 60%
- Treatment success for IGA (clear or almost clear with minimum 2-point improvement) ([3]; 1% QD arm, Week 8): 49%
- proportion subjects with ≥75% improvement in EASI ([3]; 1% QD arm, Week 8): 57%
- Treatment success for IGA (clear or almost clear with minimum 2-point improvement) ([3]; 1% QD arm, Week 12): 46%
- proportion subjects with ≥75% improvement in EASI ([3]; 1% QD arm, Week 12): 57%
- reported TEAEs ([3]; 1% QD arm): 54%
- proportion subjects with ≥75% improvement in EASI ([3]; 1% QD): 51%
